Experiment: mn = molality of the nth substance listed, in mol/kg
Conditions: Liquid; for viscosity: Capillary tube (Ostwald / Ubbelohde) method; for mass density: Constant-volume piezometry

O=S(=O)([O-])[O-].[Mg+2] [magnesium sulfate] + O
Conditions	mass density [kg/m3]	viscosity [mPa·s]
348.15 K, 100 kPa, m1 = 2.291	–	1.503
348.15 K, 101 kPa, m1 = 0.084	984.5	–
348.15 K, 101 kPa, m1 = 0.261	1004.83	–
348.15 K, 101 kPa, m1 = 0.469	1028.4	–
348.15 K, 101 kPa, m1 = 0.841	1069.05	–
348.15 K, 10000 kPa, m1 = 0.437	–	0.4948
348.15 K, 10000 kPa, m1 = 2.291	–	1.514
348.15 K, 30000 kPa, m1 = 0.437	–	0.5024
348.15 K, 30000 kPa, m1 = 2.291	–	1.536
348.2 K, 100 kPa, m1 = 1.824	–	1.127
348.2 K, 10000 kPa, m1 = 1.824	–	1.135
348.2 K, 30000 kPa, m1 = 1.824	–	1.151
348.23 K, 2118 kPa, m1 = 2.224	1208.2	–
348.23 K, 8002 kPa, m1 = 2.224	1210.4	–
348.23 K, 14710 kPa, m1 = 2.224	1212.2	–
348.23 K, 25300 kPa, m1 = 2.224	1215.7	–
348.23 K, 30020 kPa, m1 = 2.224	1217.1	–
348.25 K, 100 kPa, m1 = 0.255	–	0.4399
348.25 K, 10000 kPa, m1 = 0.255	–	0.4432
348.25 K, 30000 kPa, m1 = 0.255	–	0.4502
348.32 K, 100 kPa, m1 = 0.085	–	0.3976
348.32 K, 10000 kPa, m1 = 0.085	–	0.4008
348.32 K, 30000 kPa, m1 = 0.085	–	0.4066
348.35 K, 100 kPa, m1 = 2.623	–	1.849
348.35 K, 10000 kPa, m1 = 2.623	–	1.863
348.35 K, 30000 kPa, m1 = 2.623	–	1.889
348.36 K, 100 kPa, m1 = 0.722	–	0.5831
348.36 K, 10000 kPa, m1 = 0.722	–	0.5875
348.36 K, 30000 kPa, m1 = 0.722	–	0.5961
348.75 K, 100 kPa, m1 = 0.923	–	0.6495
348.75 K, 10000 kPa, m1 = 0.923	–	0.6548
348.75 K, 30000 kPa, m1 = 0.923	–	0.6642
358.95 K, 101 kPa, m1 = 2.224	1200.88	–
358.95 K, 101 kPa, m1 = 2.535	1228.61	–
370.1 K, 100 kPa, m1 = 2.291	–	1.068
370.1 K, 10000 kPa, m1 = 2.291	–	1.078
370.1 K, 30000 kPa, m1 = 2.291	–	1.099
370.4 K, 100 kPa, m1 = 0.923	–	0.4894
370.4 K, 10000 kPa, m1 = 0.923	–	0.4945
370.4 K, 30000 kPa, m1 = 0.923	–	0.5035
370.45 K, 100 kPa, m1 = 0.085	–	0.3053
370.45 K, 100 kPa, m1 = 0.722	–	0.4386
370.45 K, 10000 kPa, m1 = 0.085	–	0.3084
370.45 K, 10000 kPa, m1 = 0.722	–	0.4433
370.45 K, 30000 kPa, m1 = 0.085	–	0.3144
370.45 K, 30000 kPa, m1 = 0.722	–	0.4516
370.75 K, 100 kPa, m1 = 2.623	–	1.295
370.75 K, 10000 kPa, m1 = 2.623	–	1.308
370.75 K, 30000 kPa, m1 = 2.623	–	1.333
371.44 K, 100 kPa, m1 = 1.824	–	0.804
371.44 K, 10000 kPa, m1 = 1.824	–	0.811
371.44 K, 30000 kPa, m1 = 1.824	–	0.827
371.9 K, 100 kPa, m1 = 0.437	–	0.3654
371.9 K, 10000 kPa, m1 = 0.437	–	0.3694
371.9 K, 30000 kPa, m1 = 0.437	–	0.3766
372.4 K, 100 kPa, m1 = 0.255	–	0.33
372.4 K, 10000 kPa, m1 = 0.255	–	0.3336
372.4 K, 30000 kPa, m1 = 0.255	–	0.34
373.22 K, 3020 kPa, m1 = 2.535	1220.3	–
373.22 K, 6610 kPa, m1 = 2.535	1221.6	–
373.22 K, 14380 kPa, m1 = 2.535	1224.1	–
373.22 K, 21080 kPa, m1 = 2.535	1226.1	–
373.22 K, 24710 kPa, m1 = 2.535	1227.4	–
373.22 K, 29800 kPa, m1 = 2.535	1229	–
373.24 K, 2275 kPa, m1 = 2.224	1192.8	–
373.24 K, 7355 kPa, m1 = 2.224	1194.5	–
373.24 K, 12870 kPa, m1 = 2.224	1196.4	–
373.24 K, 20420 kPa, m1 = 2.224	1198.9	–
373.24 K, 29820 kPa, m1 = 2.224	1201.7	–
394.16 K, 10000 kPa, m1 = 2.623	–	0.963
394.16 K, 30000 kPa, m1 = 2.623	–	0.985
396.25 K, 10000 kPa, m1 = 0.923	–	0.377
396.25 K, 30000 kPa, m1 = 0.923	–	0.3862
397.1 K, 10000 kPa, m1 = 1.824	–	0.605
397.1 K, 30000 kPa, m1 = 1.824	–	0.619
397.14 K, 10000 kPa, m1 = 0.085	–	0.2381
397.14 K, 30000 kPa, m1 = 0.085	–	0.2437
398.15 K, 5810 kPa, m1 = 2.535	1203.8	–
398.15 K, 11100 kPa, m1 = 2.535	1205.6	–
398.15 K, 21700 kPa, m1 = 2.535	1209	–
398.15 K, 29400 kPa, m1 = 2.535	1211.5	–
398.19 K, 2452 kPa, m1 = 2.224	1175.3	–
398.19 K, 7355 kPa, m1 = 2.224	1177.2	–
398.19 K, 12080 kPa, m1 = 2.224	1178.9	–
398.19 K, 19850 kPa, m1 = 2.224	1181.7	–
398.19 K, 26220 kPa, m1 = 2.224	1183.8	–
398.7 K, 10000 kPa, m1 = 2.291	–	0.774
398.7 K, 30000 kPa, m1 = 2.291	–	0.792
398.75 K, 10000 kPa, m1 = 0.437	–	0.2834
398.75 K, 30000 kPa, m1 = 0.437	–	0.2901
399.24 K, 10000 kPa, m1 = 0.722	–	0.3306
399.24 K, 30000 kPa, m1 = 0.722	–	0.3384
399.44 K, 10000 kPa, m1 = 0.255	–	0.2566
399.44 K, 30000 kPa, m1 = 0.255	–	0.2625
422.1 K, 10000 kPa, m1 = 1.824	–	0.477
422.1 K, 30000 kPa, m1 = 1.824	–	0.49
422.35 K, 10000 kPa, m1 = 0.923	–	0.3
422.35 K, 30000 kPa, m1 = 0.923	–	0.3081
422.7 K, 10000 kPa, m1 = 0.085	–	0.1945
422.7 K, 30000 kPa, m1 = 0.085	–	0.1999
423.85 K, 10000 kPa, m1 = 0.255	–	0.2113
423.85 K, 30000 kPa, m1 = 0.255	–	0.2169
424.13 K, 10000 kPa, m1 = 0.437	–	0.23
424.13 K, 30000 kPa, m1 = 0.437	–	0.2366
428.16 K, 10000 kPa, m1 = 0.722	–	0.2597
428.16 K, 30000 kPa, m1 = 0.722	–	0.2673
447.16 K, 10000 kPa, m1 = 0.255	–	0.1798
447.16 K, 30000 kPa, m1 = 0.255	–	0.1855
447.42 K, 10000 kPa, m1 = 0.437	–	0.1966
447.42 K, 30000 kPa, m1 = 0.437	–	0.2019
448.24 K, 10000 kPa, m1 = 0.085	–	0.1643
448.24 K, 30000 kPa, m1 = 0.085	–	0.1694
